Assays:
[1] = system: EV-D68 STL-2014-12; assay: CPE protection, EV-D68 STL-2014-12 strain; assay type: cell-based; conditions: for EC50: EV-D68 STL-2014-12, RD cells
[2] = system: EV-A71 VP1 protein; assay: inhibition of EV-A71 VP1 protein synthesis (immunofluorescence, Western blot); assay type: cell-based; conditions: Vero cells IF, RD cells Western blot (FIG. 4)
Experimental: Vero cells were seeded in a 96-well black plate at a density of about 1.0×10^4 per well and cultured at 37° C. and 5% CO2 for 24 hours. Then, EV-A71 virus was diluted to the corresponding concentration with cell maintenance medium and added into the 96-well plate (MOI=1). At the same time, the test compounds EIDD-1931 and EIDD-2801, which had been diluted in advance with cell maintenance medium, were added at the final concentrations of 10 μM, 3 μM and 100 μM, 30 μM, respectively. Then the cells were cultured for 16 hours, the liquid was discarded, 100 μL of 4% formaldehyde was added to each well for fixation for 30 minutes, the fixative was discarded, PBS buffer was added, and the antibody was incubated and labeled for imaging.
RD cells were seeded in a 12-well plate at a density of about 1.0×10^5 per well and cultured at 37° C. and 5% CO2 for 24 hours. Then, EV-A71 virus was diluted to the corresponding concentration with cell maintenance medium and added to the 12-well plate so that the virus content in each well was 0.1 MOI. […] After the protein concentration was determined with BCA protein quantification kit, the corresponding volume of 5×SDS Loading Buffer was added and boiled at 100° C. for 10 minutes to fully denature the protein. […]

[3] = system: EV-A71; assay: infectious virus particle formation in supernatant (TCID50 detection); assay type: cell-based; conditions: supernatant of RD cells, TCID50 (FIG. 3 A and C)
[4] = system: Vero cells; assay: cytotoxicity test on Vero cells; assay type: cell-based, African green monkey; conditions: 3 days
Experimental: (§1) Human liver tumor cells (Huh7 cells) used in the experiment were purchased from Chinese National Infrastructure of Cell Line Resource. Human […] cells (RD cells) and African green monkey kidney cells (Vero cells) were purchased from ATCC (Cat. No.: CCL-136 and CCL-81, respectively). The above cells were cultured in a cell culture incubator at 37° C. and 5% CO2. The complete culture medium used for cell growth was DMEM high-glucose culture medium (purchased from Gibco, Cat. […] No.: 16000044) and penicillin-streptomycin (purchased from Gibco, Cat. No.: 2321152). The maintenance culture medium used for cell culture was DMEM high-glucose culture medium supplemented with 2% FBS and penicillin-streptomycin. H strain of EV-A71 was purchased from ATCC (Cat. No.: VR-1432). […] The microplate reader, model Spectra Max M5, was purchased from Molecular Devices. […] Finally, the luminescence value of each well was measured using the microplate reader. The inhibition rate of the test compounds at each dilution was calculated as follows: [formula] […] The half-cytotoxic concentrations (CC50) of the test compounds were calculated using the same method, and the select index (SI) was calculated based on EC50 and CC50: SI=CC50/EC50.

[5] = system: EV-A71; assay: protection of 1-day-old ICR suckling mice with lethal EV-A71 infection; assay type: in vivo; conditions: for protective effect on ICR suckling mice inoculated with a lethal dose of EV-A71: 200, 66.6, 22.2, 7.41 mg/kg intraperitoneally once per day for 7 days
Experimental: 10 litters of 1-day-old ICR offspring female mice were randomly divided into 10 groups, namely, virus control group (2 groups), EIDD-1931 administration group (4 groups), and EIDD-2801 administration group (4 groups). The dosages of EIDD-1931 and EIDD-2801 were 200 mg/kg, 66.6 mg/kg, 22.2 mg/kg, and 7.41 mg/kg, respectively. Each mouse was challenged with 10^6 PFU intraperitoneally, and administrated the drug intraperitoneally 4 hours later. The mice of virus control group were administrated the drug solvent. And then, the drug was administered once per day for 7 consecutive days. The mice were weighed, and the survival and weight changes in the mice were recorded every day.
Log-Rank was used to calculate the statistical significance of the survival curve. p<0.05 indicated statistical significance.

[6] = system: RD cells; assay: cytotoxicity test on RD cells; assay type: cell-based, Human; conditions: 3 days
Experimental: as §1

Row | SMILES | inhibitory activity against EV-V68 [1] | EC50 [1] | inhibition of production of EV-A71 VP1 protein [2] | inhibition of production of infectious viral particles [3] | CC50 [4] | time within which the mice died ([5]; 7.41 mg/kg intraperitoneally) | time within which the mice died ([5]; 22.2 mg/kg intraperitoneally) | survival rate ([5]; 66.6 mg/kg intraperitoneally) | survival rate ([5]; 200 mg/kg intraperitoneally) | protective effect on ICR suckling mice inoculated with a lethal dose of EV-A71 [5] | CC50 [6] | survival rate ([5]; 22.2 mg/kg intraperitoneally) | protection from the lethal dose of EV-71 virus ([5]; 66.6 mg/kg intraperitoneally) | protection from the lethal dose of EV-71 virus ([5]; 200 mg/kg intraperitoneally) | weight gain of surviving mice ([5]; 200, 66.6 and 22.2 mg/kg)
1 | CC(C)C(=O)OC[C@H]1O[C@@H](n2cc/c(=N\O)[nH]c2=O)[C@H](O)[C@@H]1O [EIDD-2801] | low inhibitory activity | 86.2 ± 9.17 µM | dose-dependently inhibit | inhibited | > 100 µM | ≤ 13 days | ≤ 13 days | 67% | 100% | dose-dependent protective effect | > 100 µM |  |  |  | 
2 | O=c1nc(NO)ccn1[C@@H]1O[C@H](CO)[C@@H](O)[C@H]1O [EIDD-1931] |  | 9.69 ± 0.04 µM | dose-dependently inhibit | inhibited | 14.1 ± 0.43 µM | ≤ 12 days |  |  |  | dose-dependent protective effect | 80.47 ± 0.02 µM | 60% | completely protect | completely protect | good weight gain
